Key:
[1] = test system: aggression in mice; conditions: Ito 1981; cited from earlier work
[2] = test system: muricide (mouse killing behavior) in rats; conditions: Ito 1981; cited from earlier work
[3] = test system: anti-noradrenergic effects; conditions: Ito 1981; cited from earlier work
[4] = test system: narcosis; conditions: mice; U.S. Pat. No. 4,322,346; cited from earlier work
[5] = test system: apomorphine-induced hypothermia, stereotypies and climbing; test: Low Dose Apomorphine Test in the mouse; assay type: in vivo; conditions: for STEREOTYPY (intensity score), 20 min after apomorphine, mean ± s.e.m. / STEREOTYPY (intensity score), 50 min after apomorphine, mean ± s.e.m.: 4 point scale (0-3); for CLIMBING (No. of mice), 20 minutes after apomorphine / CLIMBING (No. of mice), 50 minutes after apomorphine: 6 mice per group; for Rectal Temperature, 30 min after apomorphine, mean change from control / Rectal Temperature, 60 min after apomorphine, mean change from control / STEREOTYPY (intensity score), 20 min after apomorphine, mean change from control / STEREOTYPY (intensity score), 50 min after apomorphine, mean change from control: vs vehicle; for Rectal Temperature, before apomorphine, mean ± s.e.m.: 30 min after test substance
Description: Racemic tofisopam, (R)-tofisopam and (S)-tofisopam were investigated in the Low Dose Apomorphine Test in the mouse to evaluate their pro- or anti-dopaminergic activity following intraperitoneal (i.p.) administration of apomorphine. Apomorphine, at a low dose, induces hypothermia, stereotypies and climbing. All three of these symptoms are potentiated by dopaminergic agonists and antagonized by dopamine antagonists, such as classical neuroleptics. The Low Dose Apomorphine Test, thus serves to detect pro- or antidopaminergic activity. The test was performed according to the protocols described by Chermat and Poncelet. See, Chermat R., Poncelet M., “Antagonisme des redressements, des stéréotypies et de l'hypotheimie induits par 1 ou 16 mg.kg-1 d'apomorphine,” J. Pharmacol., 14, 93-97, 1983.
Male mice of Rj: NMRI strain, 23-26 g body weight range were supplied by Elevage Janvier, 53940 Le Genest-Saint-Isle, France. The animals were delivered to the laboratory at least 3 days before the experiment and, upon arrival, were housed 10 per cage in macrolon cages (25×19×13 cm) containing wood shavings (Litalabo-SPPS, 95100 Argenteuil, France) with free access to food (UAR 113-UAR, 91360 Epinay-sur-Orge, France) and tap water (i.e. non-fasted) until tested. The animal house was maintained under artificial lighting (12 hours) between 7.00 and 19.00 in a controlled ambient temperature of 21±1° C., and relative humidity maintained at 40-70%.
The different treatments were equally distributed between the animals. During the experiment, each animal within a cage received the same treatment. Animals within a cage were individually marked on the tail with an indelible pen.
The experiment was conducted blind with treatment vials labeled A, B, C etc., according to a standardized coding procedure. The evaluation of the different treatments was balanced over time by testing successive series of individual animals from each treatment group in a fixed rotation (A, B, C, etc.). Animals were sacrificed at the end of the experiment by exposure to CO2.
Three compounds, racemic tofisopam, (R)-tofisopam and (S)-tofisopam were tested in the Low Dose Apomorphine Test. Each of these three compounds was dosed as a dispersion in 0.2% hydroxypropylmethylcellulose (HPMC) (Sigma), in sterile physiological saline (Laboratoire Aguettant).
Two reference standards were also dosed. Bromocriptine, methanesulfonate (Sigma), a known dopamine agonist, and haloperidol (Sigma), a known dopamine antagonist, were dispersed in 0.2% HPMC in sterile physiological saline.
Apomorphine hydrochloride, the dopamine mimetic employed in the assay, was dissolved in water for injectable preparation (Laboratoire Aguettant). Dosing: All of the dosed substances were administered in a volume of 10 ml/kg. The doses are expressed in mg/kg of supplied substance.
6 mice were studied per group. The test was performed blind.
Racemic tofisopam, (R)-tofisopam and (S)-tofisopam were administered at doses of 16, 32 and 64 mg/kg, administered intraperitonealy (i.p.), 30 minutes prior to administration of apomorphine.
The rectal temperature of the mice was measured prior to apomorphine dosing using a rectal probe (Physitemp Instruments Digital Laboratory Thermometer Model BAT-12). The mice were then placed in individual Plexiglas cages (10×6×4 cm) attached with the opening against a vertical wire grid.
The mice were then injected subcutaneously (s.c.) with apomorphine (1 mg/kg). Rectal temperature was measured 30 and 60 minutes after the injection of apomorphine.
The intensity of stereotypies (sniffing, licking, gnawing), were scored at 20 minutes and 50 minutes after injection of apomorphine on a 4 point scale (0-3). The presence (1) or absence (0) of climbing against the wire grid wall, were also assessed 20 and 50 minutes after injection of apomorphine.
The reference standards bromocriptine (16 mg/kg) and haloperidol (0.5 mg/kg), were administered under the same experimental conditions.

[6] = 16 mg/kg i.p. 30 min before apomorphine 1 mg/kg s.c.
[7] = 16 mg/kg i.p. 30 min before apomorphine 1 mg/kg s.c., mouse
[8] = 32 mg/kg i.p. 30 min before apomorphine 1 mg/kg s.c.
[9] = 32 mg/kg i.p. 30 min before apomorphine 1 mg/kg s.c., mouse
[10] = 64 mg/kg i.p. 30 min before apomorphine 1 mg/kg s.c.
[11] = 64 mg/kg i.p. 30 min before apomorphine 1 mg/kg s.c., mouse

CCC1C(C)=NN=C(c2ccc(O)c(OC)c2)c2cc(OC)c(OC)cc21 (stereo not shown) [1-(3-Methoxy-4-hydroxyphenyl)-4-methyl-5-ethyl-7,8-dimethoxy-5H-2,3-benzodiazepine]
inhibition of aggression in mice [1]: 0%
inhibition of muricide [2]: 0%
antinoradrenergic effect [3]: a measurable antinoradrenergic effect
narcosis-potentiating activity [4]: narcosis-potentiating activity

CCC1C(C)=NN=C(c2ccc(OC)c(OC)c2)c2cc(OC)c(O)cc21 (stereo not shown) [1-(3,4-Dimethoxyphenyl)-4-methyl-5-ethyl-7-hydroxy-8-methoxy-5H-2,3-benzodiazepine]
inhibition of aggression in mice [1]: 0%
inhibition of muricide [2]: 20%
antinoradrenergic effect [3]: no antinoradrenergic effect

CCC1C(C)=NN=C(c2ccc(O)c(OC)c2)c2cc(OC)c(O)cc21 (stereo not shown) [1-(3-Methoxy-4-hydroxyphenyl)-4-methyl-5-ethyl-7-hydroxy-8-methoxy-5H-2,3-benzodiazepine]
inhibition of aggression in mice [1]: 28.6%
inhibition of muricide [2]: 20%
antinoradrenergic effect [3]: a measurable antinoradrenergic effect

CC[C@H]1C(C)=NN=C(c2ccc(OC)c(OC)c2)c2cc(OC)c(OC)cc21 [(R)-tofisopam, (R)-1-(3,4-dimethoxyphenyl)-4-methyl-5-ethyl-7,8-dimethoxy-5H-2,3-benzodiazepine]
STEREOTYPY (intensity score), 20 min after apomorphine, mean ± s.e.m. [5, 6]: 2.8 ± 0.2
STEREOTYPY (intensity score), 50 min after apomorphine, mean ± s.e.m. [5, 6]: 1.0 ± 0.3
CLIMBING (No. of mice), 20 minutes after apomorphine [5, 6]: 6 No. of mice
CLIMBING (No. of mice), 50 minutes after apomorphine [5, 6]: 5 No. of mice
Rectal Temperature, 30 min after apomorphine, mean ± s.e.m. [5, 7]: 35.1 ± 0.3 °C
Rectal Temperature, 60 min after apomorphine, mean ± s.e.m. [5, 7]: 36.9 ± 0.2 °C
Rectal Temperature, 30 min after apomorphine, mean change from control [5, 6]: 0.0 °C
Rectal Temperature, 60 min after apomorphine, mean change from control [5, 6]: +0.2 °C
STEREOTYPY (intensity score), 20 min after apomorphine, mean change from control [5, 6]: +0.6
STEREOTYPY (intensity score), 50 min after apomorphine, mean change from control [5, 6]: 0.0
Rectal Temperature, before apomorphine, mean ± s.e.m. ([5]; 16 mg/kg i.p., mouse): 37.3 ± 0.1 °C
STEREOTYPY (intensity score), 20 min after apomorphine, mean ± s.e.m. [5, 8]: 2.2 ± 0.2
STEREOTYPY (intensity score), 50 min after apomorphine, mean ± s.e.m. [5, 8]: 1.0 ± 0.3
CLIMBING (No. of mice), 20 minutes after apomorphine [5, 8]: 6 No. of mice
CLIMBING (No. of mice), 50 minutes after apomorphine [5, 8]: 4 No. of mice
Rectal Temperature, 30 min after apomorphine, mean ± s.e.m. [5, 9]: 34.6 ± 0.4 °C
Rectal Temperature, 60 min after apomorphine, mean ± s.e.m. [5, 9]: 36.6 ± 0.2 °C
Rectal Temperature, 30 min after apomorphine, mean change from control [5, 8]: −0.5 °C
Rectal Temperature, 60 min after apomorphine, mean change from control [5, 8]: −0.1 °C
STEREOTYPY (intensity score), 20 min after apomorphine, mean change from control [5, 8]: 0.0
STEREOTYPY (intensity score), 50 min after apomorphine, mean change from control [5, 8]: 0.0
Rectal Temperature, before apomorphine, mean ± s.e.m. ([5]; 32 mg/kg i.p., mouse): 37.1 ± 0.1 °C
STEREOTYPY (intensity score), 20 min after apomorphine, mean ± s.e.m. [5, 10]: 1.5 ± 0.6
STEREOTYPY (intensity score), 50 min after apomorphine, mean ± s.e.m. [5, 10]: 1.2 ± 0.3
CLIMBING (No. of mice), 20 minutes after apomorphine [5, 10]: 3 No. of mice
CLIMBING (No. of mice), 50 minutes after apomorphine [5, 10]: 2 No. of mice
Rectal Temperature, 30 min after apomorphine, mean ± s.e.m. [5, 11]: 35.1 ± 0.4 °C
Rectal Temperature, 60 min after apomorphine, mean ± s.e.m. [5, 11]: 36.5 ± 0.4 °C
Rectal Temperature, 30 min after apomorphine, mean change from control [5, 10]: 0.0 °C
Rectal Temperature, 60 min after apomorphine, mean change from control [5, 10]: −0.2 °C
STEREOTYPY (intensity score), 20 min after apomorphine, mean change from control [5, 10]: −0.7
STEREOTYPY (intensity score), 50 min after apomorphine, mean change from control [5, 10]: +0.2
Rectal Temperature, before apomorphine, mean ± s.e.m. ([5]; 64 mg/kg i.p., mouse): 37.2 ± 0.1 °C
effect on apomorphine-induced hypothermia ([5]; 16, 32 and 64 mg/kg i.p., mouse): did not affect
effect on apomorphine-induced hypothermia, stereotypies or climbing ([5]; dose-range tested (16, 32, 64 mg/kg i.p.)): did not affect

CC[C@@H]1C(C)=NN=C(c2ccc(OC)c(OC)c2)c2cc(OC)c(OC)cc21 [(S)-tofisopam, (S)-1-(3,4-dimethoxyphenyl)-4-methyl-5-ethyl-7,8-dimethoxy-5H-2,3-benzodiazepine]
STEREOTYPY (intensity score), 20 min after apomorphine, mean ± s.e.m. [5, 6]: 3.0 ± 0.0
STEREOTYPY (intensity score), 50 min after apomorphine, mean ± s.e.m. [5, 6]: 0.7 ± 0.2
CLIMBING (No. of mice), 20 minutes after apomorphine [5, 6]: 6 No. of mice
CLIMBING (No. of mice), 50 minutes after apomorphine [5, 6]: 3 No. of mice
Rectal Temperature, 30 min after apomorphine, mean ± s.e.m. [5, 7]: 34.8 ± 0.4 °C
Rectal Temperature, 60 min after apomorphine, mean ± s.e.m. [5, 7]: 37.2 ± 0.2 °C
Rectal Temperature, 30 min after apomorphine, mean change from control [5, 6]: −0.3 °C
Rectal Temperature, 60 min after apomorphine, mean change from control [5, 6]: +0.5 °C
STEREOTYPY (intensity score), 20 min after apomorphine, mean change from control [5, 6]: +0.8
STEREOTYPY (intensity score), 50 min after apomorphine, mean change from control [5, 6]: −0.3
Rectal Temperature, before apomorphine, mean ± s.e.m. ([5]; 16 mg/kg i.p., mouse): 37.2 ± 0.3 °C
behaviour on apomorphine-induced hypothermia (rectal temperature) ([5]; 16 mg/kg, sixty minutes after apomorphine, slight but statistically significant elevation in temperature): weak dopamine antagonist
behaviour on apomorphine-induced stereotypies ([5]; 16 mg/kg, twenty minute time point): strong dopamine agonist
STEREOTYPY (intensity score), 20 min after apomorphine, mean ± s.e.m. [5, 8]: 2.3 ± 0.3
STEREOTYPY (intensity score), 50 min after apomorphine, mean ± s.e.m. [5, 8]: 0.3 ± 0.2
CLIMBING (No. of mice), 20 minutes after apomorphine [5, 8]: 6 No. of mice
CLIMBING (No. of mice), 50 minutes after apomorphine [5, 8]: 2 No. of mice
Rectal Temperature, 30 min after apomorphine, mean ± s.e.m. [5, 9]: 34.4 ± 0.3 °C
Rectal Temperature, 60 min after apomorphine, mean ± s.e.m. [5, 9]: 36.6 ± 0.2 °C
Rectal Temperature, 30 min after apomorphine, mean change from control [5, 8]: −0.7 °C
Rectal Temperature, 60 min after apomorphine, mean change from control [5, 8]: −0.1 °C
STEREOTYPY (intensity score), 20 min after apomorphine, mean change from control [5, 8]: +0.1
STEREOTYPY (intensity score), 50 min after apomorphine, mean change from control [5, 8]: −0.7
Rectal Temperature, before apomorphine, mean ± s.e.m. ([5]; 32 mg/kg i.p., mouse): 37.0 ± 0.2 °C
STEREOTYPY (intensity score), 20 min after apomorphine, mean ± s.e.m. [5, 10]: 0.2 ± 0.2
STEREOTYPY (intensity score), 50 min after apomorphine, mean ± s.e.m. [5, 10]: 0.2 ± 0.2
CLIMBING (No. of mice), 20 minutes after apomorphine [5, 10]: 0+ No. of mice
CLIMBING (No. of mice), 50 minutes after apomorphine [5, 10]: 0 No. of mice
Rectal Temperature, 30 min after apomorphine, mean ± s.e.m. [5, 11]: 33.6 ± 0.7 °C
Rectal Temperature, 60 min after apomorphine, mean ± s.e.m. [5, 11]: 33.3 ± 1.0 °C
Rectal Temperature, 30 min after apomorphine, mean change from control [5, 10]: −1.5 °C
Rectal Temperature, 60 min after apomorphine, mean change from control [5, 10]: −3.4 °C
STEREOTYPY (intensity score), 20 min after apomorphine, mean change from control [5, 10]: −2.0
STEREOTYPY (intensity score), 50 min after apomorphine, mean change from control [5, 10]: −0.8
Rectal Temperature, before apomorphine, mean ± s.e.m. ([5]; 64 mg/kg i.p., mouse): 37.2 ± 0.2 °C
behaviour on apomorphine-induced stereotypies and climbing ([5]; 64 mg/kg, twenty and fifty minute time points): strong dopamine antagonist
behaviour on apomorphine-induced hypothermia (rectal temperature) ([5]; higher doses (32, 64 mg/kg), thirty and sixty minute time points, lowering the rectal temperature): dopamine antagonism

— patent US20040254173A1, “Modulation of dopamine responses with substituted (S)-2,3-benzodiazepines” (priority 2003, published 2004)
